Measurements: article PMC7419507, “In vitro Cas9-assisted editing of modular polyketide synthase genes to produce desired natural product derivatives” (Nature Communications, 2020)
Several values for one entry are separate records, joined by “and”; a condition that tells them apart may be missing. Equal entries are not always repeated. Entries after “also recorded” stand apart in the source; their conditions may differ. Where two headings read alike, the source gives them in different places.

Molecular target: T1, FKBP12 and mTOR (Homo sapiens, UniProt P42345+P62942)
T1 construct: host or cells: HeLa cells
Experiment: Fluoppi analysis: induction of FKBP12-mTOR complex formation in transfected HeLa cells
Format: cell-based
Conditions: for Foci intensity: raw data, one replicate per line
Summary of the method: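 HeLa cells co-transfected with phAG-mTOR and pAsh-FKBP12, seeded 3000 cells/well, then compound-treated 1 h after 24 h at 37 °C. Fixed, Hoechst-stained, imaged by high-content microscopy; foci fluorescence normalized to total cell fluorescence, EC50 computed.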

[1] = Fluoppi, HeLa cells, 1 h treatment, three independent biological replicates, read-out: EC50, induction of the formation of FKBP-mTOR complex

T1 sequence (P42345 2025-2114 limits assumed): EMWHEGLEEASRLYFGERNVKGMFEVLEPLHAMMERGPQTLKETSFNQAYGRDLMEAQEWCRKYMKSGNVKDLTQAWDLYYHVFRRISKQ
T1 sequence (P62942 whole entry): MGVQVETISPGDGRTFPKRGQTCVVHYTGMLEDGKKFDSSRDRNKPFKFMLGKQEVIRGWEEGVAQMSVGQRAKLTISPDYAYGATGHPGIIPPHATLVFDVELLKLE

| SMILES | PPI-inducing (binding enhancing) activity between FKBP12 and mTOR compared with rapamycin (1), in words (Fluoppi) | Foci intensity (conc 9.53674e-5 uM) | Foci intensity (conc 0.000190735 uM) | Foci intensity (conc 0.00038147 uM) | Foci intensity (conc 0.000762939 uM) | Foci intensity (conc 0.00152588 uM) | Foci intensity (conc 0.00305176 uM) | Foci intensity (conc 0.00610352 uM) | Foci intensity (conc 0.012207 uM) | Foci intensity (conc 0.0244141 uM) | Foci intensity (conc 0.0488281 uM) | Foci intensity (conc 0.0976562 uM) | Foci intensity (conc 0.195312 uM) | Foci intensity (conc 0.390625 uM) | Foci intensity (conc 0.78125 uM) | Foci intensity (conc 1.5625 uM) | Foci intensity (conc 3.125 uM) | Foci intensity (conc 6.25 uM) | Foci intensity (conc 12.5 uM) | Foci intensity (conc 25 uM) | other results |
| --- | --- | --- | --- | --- | --- | --- | --- | --- | --- | --- | --- | --- | --- | --- | --- | --- | --- | --- | --- | --- | --- |
| CO[C@H]1C[C@@H]2CC[C@@H](C)[C@@](O)(O2)C(=O)C(=O)N2CCCC[C@H]2C(=O)O[C@H]([C@H](C)C[C@@H]2CC[C@@H](O)[C@H](OC)C2)CC(=O)[C@H](C)/C=C(\C)[C@@H](O)CC[C@H](C)/C=C/C=C/C=C/1C [Compound 7] | much less potent than 1 | 0.01546 and 0.009859 and 0.01479 | 0.02291 and 0.01436 and 0.01269 | 0.01763 and 0.009567 and 0.009808 | 0.02965 and 0.01327 and 0.0132 | 0.01988 and 0.005935 and 0.01208 | 0.01996 and 0.02873 and 0.02267 | 0.009728 and 0.0229 and 0.03931 | 0.02585 and 0.06278 and 0.01094 | 0.02982 and 0.02323 and 0.02961 | 0.03327 and 0.007263 and 0.02034 | 0.0343 and 0.0166 and 0.04409 | 0.1225 and 0.05897 and 0.08613 | 0.2002 and 0.2003 and 0.254 | 0.2477 and 0.2297 and 0.3237 | 0.2891 and 0.3472 and 0.3016 | 0.3418 and 0.3544 and 0.3825 | 0.285 and 0.273 and 0.328 | 0.2778 and 0.3903 and 0.3448 | 0.3624 and 0.278 and 0.3289 | EC50 [1]: 320 nM; Foci intensity (conc 50 uM): 0.2714 and 0.2974 and 0.3445 |
| CO[C@@H]1/C=C/C=C/[C@@H](C)C[C@@H](C)C(=O)C[C@H](O)/C(C)=C/[C@@H](C)C(=O)C[C@@H]([C@H](C)C[C@@H]2CC[C@@H](O)[C@H](OC)C2)OC(=O)[C@@H]2CCCCN2C(=O)C(=O)[C@]2(O)O[C@@H](CC[C@H]2C)C1 [Compound 9] | relatively weaker activities | 0.01796 and 0.01734 and 0.0265 | 0.007038 and 0.008763 and 0.03506 | 0.01287 and 0.02231 and 0.02044 | 0.01526 and 0.03513 and 0.01148 | 0.01977 and 0.009687 and 0.01946 | 0.01393 and 0.02436 and 0.01751 | 0.02196 and 0.02086 and 0.01607 | 0.03665 and 0.02818 and 0.0403 | 0.1568 and 0.166 and 0.1355 | 0.2266 and 0.245 and 0.2523 | 0.282 and 0.2404 and 0.219 | 0.2721 and 0.2692 and 0.2013 | 0.3169 and 0.313 and 0.309 | 0.3134 and 0.2906 and 0.2987 | 0.3134 and 0.3737 and 0.3166 | 0.3491 and 0.3731 and 0.3792 | 0.279 and 0.3226 and 0.3138 | 0.3645 and 0.3352 and 0.3161 | 0.2867 and 0.3845 and 0.2898 | EC50 [1]: 34 nM; Foci intensity (conc 50 uM): 0.3496 and 0.3134 and 0.3176 |
| COC1CC2CCC(C)C(O)(O2)C(=O)C(=O)N2CCCCC2C(=O)OC(C(C)CC2CCC(O)C(OC)C2)CC(O)CC(=O)C(C)C=C(C)C(O)CC(=O)C(C)CC(C)C=CC=CC=C1C (stereo not drawn) [Compound 13] | relatively weaker activities | 0.02036 and 0.008593 and 0.006167 | 0.01432 and 0.008145 and 0.01977 | 0.01002 and 0.01191 and 0.006949 | 0.02361 and 0.0319 and 0.02031 | 0.02629 and 0.01654 and 0.01268 | 0.02214 and 0.02006 and 0.01134 | 0.03874 and 0.01998 and 0.01509 | 0.01596 and 0.01655 and 0.01094 | 0.04032 and 0.02924 and 0.04626 | 0.1206 and 0.1281 and 0.1053 | 0.3145 and 0.2601 and 0.1852 | 0.3854 and 0.3277 and 0.371 | 0.4069 and 0.3307 and 0.3864 | 0.4181 and 0.3809 and 0.3423 | 0.3991 and 0.3532 and 0.4458 | 0.3573 and 0.4306 and 0.409 | 0.3647 and 0.3805 and 0.3539 | 0.3743 and 0.3421 and 0.396 | 0.3317 and 0.3763 and 0.373 | EC50 [1]: 73 nM; Foci intensity (conc 50 uM): 0.3749 and 0.3065 and 0.4374 |
| COC1CC2CCC(C)C(O)(O2)C(=O)C(=O)N2CCCCC2C(=O)OC(C(C)CC2CCC(O)C(OC)C2)CC(=O)C(C)C=C(C)C(O)CC(=O)C(C)C=C(C)C=CC=CC=C1C (stereo not drawn) [Compound 14] | much less potent than 1 | 0.01583 and 0.01285 and 0.01813 | 0.02463 and 0.01296 and 0.02679 | 0.01747 and 0.03336 and 0.009483 | 0.01101 and 0.009441 and 0.01241 | 0.01354 and 0.009078 and 0.03888 | 0.02172 and 0.01712 and 0.01571 | 0.01274 and 0.01148 and 0.02185 | 0.01853 and 0.03131 and 0.01125 | 0.04 and 0.01743 and 0.009054 | 0.01856 and 0.02257 and 0.02853 | 0.02191 and 0.01721 and 0.01479 | 0.01663 and 0.02497 and 0.01905 | 0.01986 and 0.02708 and 0.02914 | 0.02045 and 0.02304 and 0.03319 | 0.09025 and 0.08153 and 0.07652 | 0.2188 and 0.1724 and 0.1954 | 0.2549 and 0.2832 and 0.2819 | 0.2175 and 0.1877 and 0.2688 | 0.2553 and 0.272 and 0.2457 | EC50 [1]: 2130 nM; Foci intensity (conc 50 uM): 0.2721 and 0.2164 and 0.2636 |
| COC1CC2CCC(C)C(O)(O2)C(=O)C(=O)N2CCCCC2C(=O)OC(C(C)CC2CCC(O)C(OC)C2)CC(=O)C(C)C=C(C)C(O)C(OC)C(=O)C(C)CC(C)C=CCCC=C1C (stereo not drawn) [Compound 15, 19,20-dihidro-rapamycin] | as potent as rapamycin; also recorded: comparable level to that of rapamycin | 0.01733 and 0.01067 and 0.005693 | 0.01213 and 0.0332 and 0.01291 | 0.02253 and 0.02952 and 0.01485 | 0.009661 and 0.01831 and 0.03236 | 0.02962 and 0.01659 and 0.0505 | 0.04113 and 0.07899 and 0.06427 | 0.1575 and 0.2102 and 0.171 | 0.3436 and 0.3356 and 0.3668 | 0.3409 and 0.4046 and 0.3885 | 0.3546 and 0.3355 and 0.3935 | 0.3693 and 0.3135 and 0.3917 | 0.3656 and 0.4341 and 0.3989 | 0.405 and 0.3385 and 0.3714 | 0.3465 and 0.4349 and 0.4007 | 0.3165 and 0.3834 and 0.336 | 0.3857 and 0.3532 and 0.3973 | 0.3637 and 0.3694 and 0.3083 | 0.3396 and 0.3224 and 0.3917 | 0.3402 and 0.3226 and 0.4132 | EC50: 6.3 nM; Foci intensity (conc 50 uM): 0.4382 and 0.3564 and 0.4638 |
| COC1CC2CCC(C)C(O)(O2)C(=O)C(=O)N2CCCCC2C(=O)OC(C(C)CC2CCC(O)C(OC)C2)CCC(C)C=C(C)C(O)C(OC)C(=O)C(C)CC(C)C=CC=CC=C1C (stereo not drawn) [Compound 16, 32-desketorapamycin] | relatively weaker activities | 0.01132 and 0.0225 and 0.02884 | 0.02797 and 0.01973 and 0.01419 | 0.04487 and 0.01438 and 0.009614 | 0.009583 and 0.01833 and 0.008004 | 0.008334 and 0.01713 and 0.01044 | 0.03307 and 0.01421 and 0.0165 | 0.02498 and 0.01872 and 0.01859 | 0.05798 and 0.0563 and 0.05141 | 0.05792 and 0.05718 and 0.05874 | 0.2264 and 0.3107 and 0.3692 | 0.3743 and 0.3092 and 0.3931 | 0.3634 and 0.4076 and 0.3212 | 0.4389 and 0.407 and 0.4337 | 0.46 and 0.2978 and 0.3103 | 0.3578 and 0.3604 and 0.4124 | 0.4619 and 0.4071 and 0.4306 | 0.3337 and 0.3579 and 0.3756 | 0.4107 and 0.3542 and 0.4482 | 0.3853 and 0.4351 and 0.4313 | EC50 [1]: 38 nM; Foci intensity (conc 50 uM): 0.3983 and 0.3475 and 0.366 |
